In ChEMBL document CHEMBL5726915, “Substituted pyrimidines containing acidic groups as TLR7 modulators” (2019):

biological target: T1, Toll-like receptor 7 (Homo sapiens, UniProt Q9NYK1); test: HEK TLR7 Assay: HEK-Blue TLR7 cells were purchased from Invivogen (San Diego, Calif.). The following description was taken from the product information sheet."HEK-Blue hTLR7 cells are designed for studying the stimulation of human TLR7 (hTLR7) by monitoring the activation of NF-kB. HEK-Blue hTLR7 cells were obtained by co-transfection of the hTLR7 gene and an optimized secreted embryonic alkaline phosphatase (SEAP) reporter gene into HEK293 cells. The SEAP reporter gene is placed under the control of the IFN-b minimal promoter fused to five NF-kB and AP-1-binding sites. Stimulation with a TLR7 ligand activates NF-kB and AP-1 which induce the production of SEAP, which is detected by the HEK-Blue™ Detection cell culture medium."A typical assay protocol involved the following steps:1. Cells were cultured according to the product information sheet.2. 10 mM compound stock in DMSO were first diluted to 3 mM and then 3-fold serially diluted using DMSO to afford a 10-pt dilution.3. 3 μl of the diluted DMSO were added to 57 μl HEK-Blue Detection media for a further 20-fold dilution.4. 10 μl of the diluted compound in assay media were added into 40 μl cell culture (in HEK-Blue™ Detection media) in 384-well plate. Final cell concentration=8,000 cells per well.5. The plates were incubated at 37° C. in 5% CO2 for 16 h. SEAP was determined using a spectrophotometer at 620-655 nm.
T1 sequence (Q9NYK1 whole entry): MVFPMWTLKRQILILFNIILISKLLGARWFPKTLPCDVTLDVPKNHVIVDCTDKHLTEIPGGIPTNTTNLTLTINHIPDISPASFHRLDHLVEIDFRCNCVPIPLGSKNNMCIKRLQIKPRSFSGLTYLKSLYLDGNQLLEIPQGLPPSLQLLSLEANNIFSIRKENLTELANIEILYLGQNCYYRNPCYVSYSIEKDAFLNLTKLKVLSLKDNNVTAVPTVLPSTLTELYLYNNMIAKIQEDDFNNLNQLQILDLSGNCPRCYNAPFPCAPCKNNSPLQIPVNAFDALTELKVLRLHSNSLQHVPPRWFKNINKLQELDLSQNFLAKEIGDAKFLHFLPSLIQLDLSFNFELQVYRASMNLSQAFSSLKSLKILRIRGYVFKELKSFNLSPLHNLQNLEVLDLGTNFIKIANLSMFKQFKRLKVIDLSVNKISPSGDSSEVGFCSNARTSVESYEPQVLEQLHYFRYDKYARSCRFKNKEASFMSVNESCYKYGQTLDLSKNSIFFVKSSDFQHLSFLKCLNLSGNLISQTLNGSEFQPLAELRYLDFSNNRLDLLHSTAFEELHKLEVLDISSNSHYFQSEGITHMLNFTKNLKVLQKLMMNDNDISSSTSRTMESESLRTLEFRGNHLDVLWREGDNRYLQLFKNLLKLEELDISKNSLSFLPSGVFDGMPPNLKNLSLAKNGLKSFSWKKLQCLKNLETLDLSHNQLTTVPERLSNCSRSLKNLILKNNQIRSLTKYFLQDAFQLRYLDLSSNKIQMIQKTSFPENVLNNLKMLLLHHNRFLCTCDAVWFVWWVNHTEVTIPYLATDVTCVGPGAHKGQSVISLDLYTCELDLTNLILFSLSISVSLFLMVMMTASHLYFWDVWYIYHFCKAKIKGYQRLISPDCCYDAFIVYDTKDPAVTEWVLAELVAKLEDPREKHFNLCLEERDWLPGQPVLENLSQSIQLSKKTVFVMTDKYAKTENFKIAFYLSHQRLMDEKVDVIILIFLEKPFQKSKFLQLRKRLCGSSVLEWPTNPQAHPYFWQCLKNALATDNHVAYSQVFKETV

EC50 | SMILES
< 100 nM | CCCC[C@@H](CCSC)Nc1nc(N)nc(C)c1Cc1cc(C(=O)NCCCP(=O)(O)O)ccc1OC
< 100 nM | CCCC[C@@H](CCSC)Nc1nc(N)nc(C)c1Cc1cc(Cc2nn[nH]n2)ccc1OC
< 100 nM | CCCC[C@@H](CCS(C)(=O)=O)Nc1nc(N)nc(C)c1Cc1cc(Cc2nn[nH]n2)ccc1OC
